This note sets out measurements from patent US4912116A, “Propiophenone derivatives for treatment of pollakiuria (frequency urination)” (Hokuriku Pharmaceutical Co., Ltd., priority 1986, dated 1990).

Like-named read-outs stand apart in the source and are kept apart here.

For assay [1], the system named is cystometrogram (time to micturition). As to the kind of experiment: Effects on the cystometrogram (Cat). Format: in vivo, Mongrel adult cats. To be noted: cats; for ED (2 min delay of micturition): Felis catus, read-out: ED2 (dose which delayed time to micturition by 2 min.). As for the experimental part: (§1) statistical analysis: Each data of Experiment 1-6 represents the mean±S.E. statistical analysis of the data was performed using student's t-test.
Mongrel adult cats weighing about 3 kg (in case of intraduodenal administration, fasted 24 hours) were anesthetized with urethane (500 mg/kg, i.p.) and alpha-chloralose (50 mg/kg, i.p.) and fixed on their back.
After midline incision of the abdomen, the ureters were ligated and polyethylene tubes were inserted into the kidney side and urinary bladder side, urine was led out of the body from the kidney side, and warm saline was infused using a continuous infusion pump from the urinary bladder side.
Then, a catheter was inserted into the bladder dome and connected to a pressure transducer Intravesical pressure was recorded on a recorder.
The infusion rate of saline was changed (0.7-6.6 ml/min) so as to induce the time to micturition from saline infusion at about five minutes.
Each of delayed time of micturition was evaluated. In case of intravenous administration, the drug was administered through a cannula inserted into the right femoral vein at 30 seconds before saline infusion.
In case of intraduodenal administration, the drug was administrated through a tube inserted into the duodenum by way of mouth at the time of saline infusion, and the time to micturition was measured at 15 min. intervals until 90 min.

Assay [2] has the same test system. The assay can be described thus: Effects on the cystometrogram (in anesthetized rat). Format: in vivo, Male Wister rats. To be noted: i.v., 6 rats, mean ± S.E., saline -6.0 ± 49.8. The protocol: as §1
Male Wister rats weighing about 300 g were anesthetized with urethane (500 mg/kg, i.p.) and α-chloralose (50 mg/kg, i.p.) and fixed on their back.
Then, through a midline incision of the abdomen, the urinary bladder was exposed, provided with a small incision, a polyethylene tube was inserted into the bladder dome, and ureters were cut.
Then, through the polyethylene tube, saline was infused using a continuous infusion pump. On the other hand, the polyethylene tube was connected to a pressure transducer. Intravesical pressure was recorded on a recorder.
The drug was administrated through a cannula inserted into the left jugular vein at 30 sec before saline infusion. Effect of the drug was represented by delayed time to micturition.

The test system is the same in assay [3]. As to the kind of experiment: Effects on the cystometrogram (Dog). It counts as in vivo, Mongrel adult dogs. To be noted: i.v., dogs, mean ± S.E., saline 6.0 ± 13.8. As for the experimental part:
as §1
Mongrel adult dogs weighing about 10 kg were anesthetized with thiopental (20 mg/kg, i.v.) and immobilized with gallamine (2 mg/kg, i.v.), and fixed on their back.
In the experiment, infusion of pentobarbital (3 mg/kg/hr, i.v.) and gallamine (3 mg/kg i.v.) were continuted, and artifical respiration was performed (20 times/min, 20 ml air/kg).
After midline incision of the abdomen, the ureters were ligated and polyethylene tubes were inserted into the kidney side and the urinary bladder side. Urine was led out of the body from the kidney side, and warm saline was infused using a continuous infusion pump from the urinary bladder side.
Then, a catheter was inserted into the bladder dome and connected to a pressure transducer. Intravesical pressure was recorded on a recorder.
The infusion rate of saline was changed (6-35 ml/min) so as to induce the time to micturition from the saline infusion (time to micturition) at about five minutes.
The drug was administered (through a cannula inserted into the right femoral vein) at the second minute before the last time to micturition, and the delayed time of micturition was evaluated.

Assay [4] concerns micturition reflex (rhythmic bladder contractions). As to the kind of experiment: Inhibition of micturition reflex (rhythmic bladder contractions) in anesthetized rats. Format: in vivo, male wister rats. The conditions noted are these: for Disappearance time (of bladder contractions): i.v., 3 rats, mean ± S.E. As for the experimental part:
as §1
According to the method described by Morikawa et al. (Folia phamacol. japon.: 88,355 (1986), male wister rats weighing about 300 g (in case of intraduodenal administration, fasted 18-20 hours) were anesthetized with urethane (500 mg/kg, i.p.) and alpha-chloralose (50 mg/kg, i.p.), and fixed on their back.
Then, through a midline incision of the abdomen, the urinary bladder was exposed, provided with a small incision, and a balloon (capacity about 1 ml) was inserted into the bladder dome.
The balloon was connected to a pressure transducer and variations of inside pressure were recorded on a recorder.
Micturition reflex was elicited by elevating balloon pressure 10-20 cm H2 O.
In case of intravenous administration, the drug was administrated through a cannula inserted into the left jugular vein and, in case of intraduodenum administration, the drug was administrated through a cannula into the duodenum from outside the stomach.
In case of intravenous administration, the drug was evaluated by the dissappearance time of bladder contractions caused by micturition reflex.
In case of intraduodenal administration, the sum total of amplitude of bladder contractions caused by the micturition reflex was calculated during each five minutes at 5 min. before and 15, 30, 45, and 60 min. after the administration.
Then, the maximum inhibition rate was determined from one of the above judgment times compared with that of before the administration, and the dose which inhibited 50 percent of the sum total of amplitude of bladder contractions during five minutes (ED 50 value), was calculated from the graph.

Assay [5] deals with cystometrogram (time to micturition). As to the kind of experiment: Effect on the cystometrogram (pollakiuria model rats induced by hypogastric nerve transection). Format: in vivo, Male Wister rats. The conditions noted are these: i.v., mean ± S.E., saline -6.0 ± 31.8. As for the experimental part:
as §1
Male Wister rats weighing 300 g were incised midline of the abdomen, and bilateral hypogastric nerves were transected.
Two days after hypogastric nerve transection, the rats were anesthetized with urethane (500 mg/kg, i.p.) and alpha-chloralose (50 mg/kg, i.p.) and fixed on their back.
Then, through a midline incision of the abdomen, the urinary bladder was exposed, provided with a small incision, a polyethylene tube inserted, and ureters were cut.
Through the polyethylene tube, saline was infused using a continuous infusion pump. On the other hand, the polyethylene tube was connected to a pressure transducer. Intravesical pressure was recorded on a recorder.
The drug was administrated through a cannula inserted into the left jugular vein at 30 sec before saline infusion.
Effect of drug was represented as delayed time to micturition.

In the case of `CCc1ccc(C(=O)C(C)CN2CCCC2)cc1` (stereo not drawn) [Compound 1], the “Delayed time to micturition” value in assay [1] (1 mg/kg, i.v., mean ± S.E., saline 6.6 ± 10.2) was -19.2 ± 6.6 s; in assay [1] (4 mg/kg, i.v., mean ± S.E., saline 6.6 ± 10.2), 70.8 ± 27.0 s; in assay [1] (8 mg/kg, i.v., mean ± S.E., saline 6.6 ± 10.2) it was 170.4 ± 48.0 s; in assay [1] (12.5 mg/kg, i.d., after 30 min., water 22.2 ± 16.2), 49.8 ± 8.4 s; in assay [1] (25.0 mg/kg, i.d., after 30 min., ** p < 0.01 vs control, water 22.2 ± 16.2) it was 105.0 ± 10.8 s; in assay [1] (50.0 mg/kg, i.d., after 30 min., water 22.2 ± 16.2) it was 128.4 ± 37.8 s. Besides, the ED (2 min delay of micturition) in assay [1] (intraduodenal, 0.5 h, i.d., after 30 min.) is 39 mg/kg; in assay [1] (iv, 2 min, i.v.), 5.6 mg/kg. Further, the “Delayed time of micturition” value is 52.8 ± 50.4 s in assay [2] (1 mg/kg); 102.0 ± 32.4 s in assay [2] (4 mg/kg); 200.4 ± 60.6 s in assay [2] (8 mg/kg, ** P < 0.01 vs control); 13.2 ± 21.0 s in assay [3] (1 mg/kg); 50.4 ± 15.0 s in assay [3] (3 mg/kg, * p < 0.05 vs last time to micturition); 91.8 ± 47.4 s in assay [5] (1 mg/kg, 5 rats). Moreover, the “Delayed time of micturition” value in assay [5] (4 mg/kg, 5 rats) worked out at 179.4 ± 111.0 s; in assay [5] (8 mg/kg, 6 rats, ** P < 0.01 vs control) it was 449.4 ± 65.4 s. In addition, the entries for the “Disappearance time (of bladder contractions)” value in assay [4] (1 mg/kg), in assay [4] (2 mg/kg) and in assay [4] (4 mg/kg) were 1.1 ± 1.1 min, 2.3 ± 0.5 min and 7.1 ± 2.8 min, respectively. The ED (3 min disappearance of contractions) in assay [4] (Rattus norvegicus, iv, read-out: ED3 (dose at which rhythmic bladder contractions disappeared in three (3) minutes)) worked out at 2.2 mg/kg. For the same compound, the ED50 in assay [4] (Rattus norvegicus, intraduodenal administration, read-out: ED50 (dose which inhibited 50 percent of the sum total of amplitude of bladder contractions during five minutes)) was determined as 14.3 mg/kg.

Usually ED50 stands for the dose that gives a 50% effect, or the effect in half of the subjects.
